Data taken from patent US12516346B2, “Intelligent genetic breeding and seed production system for crop cross breeding and hybrid seed production, and application thereof” (Hainan Bolian Technology Co., Ltd., priority 2020, dated 2026).

Columns and labels:
[1] = test system: T1 generation seedlings of GAT key plants, ZH11, CK+ (P450i2-30); assay: Bentazone spraying of T1 generation seedlings; assay type: in vivo, rice; conditions: 3 g/L bentazone
Method: In order to identify the working efficiency of herbicide sensitive elements in the T1 generation of the GAT transformants, a 3 g/L bentazone solution was prepared with 48% bentazone mother liquor (Changzhou Precision Biotechnology Co., Ltd.). Some plants in the positive strains screened by bispyribac-sodium in Example 5-1 were sprayed, and continuously observed after spraying. […] See Table 3 and FIG. 22 for specific results.
ZH11 is Resistance Control, CK+(P450i2-30) is the Sensitive Positive Control

[2] = test system: GAT T0 generation transformants and wild-type control ZH11; assay: Bentazon sensitive phenotype, spraying of scribed leaf area, T0 generation; assay type: in vivo, rice
Method: In order to test the working efficiency of herbicide sensitive elements in the GAT system, after the identification of bispyribac-sodium resistance phenotype, a 3 g/L bentazone solution was prepared with 48% bentazone mother liquor (Changzhou Precision Biotechnology Co., Ltd.). The scribed area of plant leaves of surviving GAT T0 generation (347 strains) in the last spraying experiment with bispyribac-sodium and the wild-type control ZH11 were sprayed with the resultant solution, and were continuously observed after spraying. Some GAT transformants T0 had curly and yellow leaf tips on the third day after spraying. […] Meanwhile, 86 strains were highly resistant to bispyribac-sodium and highly sensitive to bentazone. Based on the similar analysis of the transformation events of the above bispyribac-sodium resistance strains, it can be seen that this experiment confirmed that the working efficiency of herbicide sensitive elements in the GAT system is high, and the created GAT seed breeding system can quickly and accurately identify the corresponding phenotype thereof.

[3] = strain 11-1 T1, 8 plants sprayed
[4] = strain 23-2 T1, 12 plants sprayed
[5] = strain 23 T1, 14 plants sprayed
[6] = strain 53-3 T1, 8 plants sprayed
[7] = strain 77-2 T1, 2 plants sprayed
[8] = strain 88-4 T1, 13 plants sprayed
[9] = strain 93-2 T1, 9 plants sprayed
[10] = strain 95-2 T1, 2 plants sprayed
[11] = strain 174-3 T1, 10 plants sprayed
[12] = strain 175-4 T1, 7 plants sprayed
[13] = strain CK + (P450i2-30) (sensitive positive control), 4 plants sprayed
[14] = strain ZH11 (resistance control), 4 plants sprayed
[15] = 347 GAT T0 strains, 3 g/L bentazone

## CC(C)N1C(=O)c2ccccc2NS1(=O)=O [bentazone]
[1]; T1 strains
  number of strains with individual plants slightly less sensitive, eventually died: 5 strains
[1]; bispyribac-sodium resistance T1 strains, 14th day
  number of strains highly susceptible to wilt and death (highly sensitive): 6 strains
[1]; strain 4 T1, 2 plants sprayed
  Highly sensitive ratio: 1/2
  Highly sensitive(dead): 1
  Low sensitivity: 0
  Medium sensitivity: 1
  No phenotype: 0
[1]; strain 7 T1, 15 plants sprayed
  Highly sensitive ratio: 2/15
  Highly sensitive(dead): 2
  Low sensitivity: 13
  Medium sensitivity: 0
  No phenotype: 0
[1]; [3]
  Highly sensitive ratio: 8/8
  Highly sensitive(dead): 8
  Low sensitivity: 0
  Medium sensitivity: 0
  No phenotype: 0
[1]; strain 20 T1, 3 plants sprayed
  Highly sensitive ratio: 2/3
  Highly sensitive(dead): 2
  Low sensitivity: 0
  Medium sensitivity: 1
  No phenotype: 0
[1]; [4]
  Highly sensitive ratio: 11/12
  Highly sensitive(dead): 11
  Low sensitivity: 0
  Medium sensitivity: 1
  No phenotype: 0
[1]; [5]
  Highly sensitive ratio: 14/14
  Highly sensitive(dead): 14
  Low sensitivity: 0
  Medium sensitivity: 0
  No phenotype: 0
[1]; strain 28 T1, 7 plants sprayed
  Highly sensitive ratio: 7/7
  Highly sensitive(dead): 7
  Low sensitivity: 0
  Medium sensitivity: 0
  No phenotype: 0
[1]; [6]
  Highly sensitive ratio: 8/8
  Highly sensitive(dead): 8
  Low sensitivity: 0
  Medium sensitivity: 0
  No phenotype: 0
[1]; [7]
  Highly sensitive ratio: 2/2
  Highly sensitive(dead): 2
  Low sensitivity: 0
  Medium sensitivity: 0
  No phenotype: 0
[1]; [8]
  Highly sensitive ratio: 12/13
  Highly sensitive(dead): 12
  Low sensitivity: 0
  Medium sensitivity: 1
  No phenotype: 0
[1]; [9]
  Highly sensitive ratio: 8/9
  Highly sensitive(dead): 8
  Low sensitivity: 1
  Medium sensitivity: 0
  No phenotype: 0
[1]; [10]
  Highly sensitive ratio: 2/2
  Highly sensitive(dead): 2
  Low sensitivity: 0
  Medium sensitivity: 0
  No phenotype: 0
[1]; [11]
  Highly sensitive ratio: 4/10
  Highly sensitive(dead): 4
  Low sensitivity: 6
  Medium sensitivity: 0
  No phenotype: 0
[1]; [12]
  Highly sensitive ratio: 5/7
  Highly sensitive(dead): 5
  Low sensitivity: 0
  Medium sensitivity: 2
  No phenotype: 0
[1]; [13]
  Highly sensitive ratio: 4/4
  Highly sensitive(dead): 4
  Low sensitivity: 0
  Medium sensitivity: 0
  No phenotype: 0
[1]; [14]
  Highly sensitive ratio: 0/4
  Highly sensitive(dead): 0
  Low sensitivity: 0
  Medium sensitivity: 0
  No phenotype: 4
[2]; [15]
  number of low sensitive or non-phenotypic strains: 122 strains
  number of strains withered severely then recovered (moderately sensitive): 81 strains
[2]; 347 GAT T0 strains, 3 g/L bentazone, 7th to 14th day
  number of strains with irreversible leaf wilt (highly sensitive): 144 strains
[2]; GAT T0 strains, 600 mg/L bispyribac-sodium then 3 g/L bentazone
  number of strains highly resistant to bispyribac-sodium and highly sensitive to bentazone: 86 strains
